According to publication PMC9313597, “In Vitro and in Silico Analysis of Phytochemicals From Fallopia dentatoalata as Dual Functional Cholinesterase Inhibitors for the Treatment of Alzheimer’s Disease” (Frontiers in Pharmacology, 2022):
Where “and” joins values, the source holds several entries; their conditions need not be identical. Equal entries are not always repeated. Where two headings read alike, the source gives them in different places.

Tests used:
BuChE [1] = target: T1, BuChE (Equus caballus, UniProt P81908); experiment: biochemical; assay type: biochemical; details: for inhibition at 100 µM: read-out: Inhibition of BuChE; for IC50: 0.05 Unit/mL enzyme, pH 7.4, 37°C, 30 min, triplicate, mean ± SEM
T1 construct: purchased Sigma-Aldrich Co. (St. Louis, Missouri, United States) C1057
Description: (§1) All HPLC solvents were purchased from Guangdong Guanghua Sci-Tech Co. Ltd. (Guangzhou, China). […] All chemicals and solvents used in column chromatography and assays were acquired from commercial sources.
(§2) 25 µL of 1 mM DTNB [5,5′-dithiobis (2-nitrobenzoic acide)] and 25 µL of 5 mM substrate, acetylthiocholine iodide (A5751), and butyrylthiocholine iodide (B3253) were sequentially added to wells in the plate. […] The inhibition ratio was calculated using the equation: Inhibitory activity(%)=[(ΔC-ΔI)/ΔC]×100 Where C and I are the intensity of control and inhibitor after 20 min, respectively.
(§3) Compounds were first evaluated in vitro for their inhibitory activities against AChE and BuChE at a concentration of 100 µM.

AChE [2] = target: T2, AChE (Electrophorus electricus, UniProt O42275); experiment: biochemical; details: for inhibition at 100 µM: read-out: Inhibition of AChE; for IC50: 0.05 Unit/mL enzyme, pH 7.4, 37°C, 30 min, triplicate, mean ± SEM
T2 construct: purchased Sigma-Aldrich Co. (St. Louis, Missouri, United States) C3389
Description: as §1, §2, §3

BuChE [3] = target: T1, BuChE; experiment: Enzyme kinetics on BuChE (Lineweaver-Burk and Dixon plots); assay type: biochemical; details: for Ki: Dixon plots, read-out: BuChE K i; for BuChE Inhibition type: Lineweaver-Burk plots, compound 2–90 µM, substrate 0.07–5 mM
Description: (§4) […]. This was achieved by performing enzyme kinetic studies on AChE/BuChE in the presence of different concentrations of compounds 30–34 (2–90 µM) at various steady-state substrate concentrations (0.07–5 mM). The interactions between compounds and cholinesterase are represented using classic double-reciprocal Lineweaver-Burk and Dixon plots ([Lineweaver and Burk, 1934]; [Dixon, 1953]). […] The resulting linear equations for compounds 30–34 with BuChE led to a series of lines with different slopes that crossed at similar intercepts on the vertical axis and different points on the horizontal axis.

AChE [4] = target: T2, AChE; experiment: Enzyme kinetics on AChE (Lineweaver-Burk and Dixon plots); assay type: biochemical; details: for Ki: Dixon plots, read-out: AChE K i; for AChE Inhibition type: Lineweaver-Burk plots, compound 2–90 µM, substrate 0.07–5 mM
Description: as §4

T1 sequence (P81908 whole entry): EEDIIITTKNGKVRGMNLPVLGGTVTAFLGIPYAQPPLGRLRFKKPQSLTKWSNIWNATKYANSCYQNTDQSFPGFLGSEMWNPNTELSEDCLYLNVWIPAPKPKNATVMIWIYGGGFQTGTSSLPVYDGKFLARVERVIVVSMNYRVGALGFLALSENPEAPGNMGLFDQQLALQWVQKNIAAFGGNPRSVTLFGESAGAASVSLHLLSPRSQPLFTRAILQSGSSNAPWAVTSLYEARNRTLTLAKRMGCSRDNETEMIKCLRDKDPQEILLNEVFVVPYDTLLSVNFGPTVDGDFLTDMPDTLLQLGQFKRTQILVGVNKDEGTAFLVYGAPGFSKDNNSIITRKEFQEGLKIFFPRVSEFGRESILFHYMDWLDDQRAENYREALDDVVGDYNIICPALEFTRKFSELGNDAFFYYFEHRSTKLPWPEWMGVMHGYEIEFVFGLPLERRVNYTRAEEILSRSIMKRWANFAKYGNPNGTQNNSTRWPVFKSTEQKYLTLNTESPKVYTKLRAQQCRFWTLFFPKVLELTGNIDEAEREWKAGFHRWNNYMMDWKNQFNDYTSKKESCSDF
T2 sequence (O42275 24-633): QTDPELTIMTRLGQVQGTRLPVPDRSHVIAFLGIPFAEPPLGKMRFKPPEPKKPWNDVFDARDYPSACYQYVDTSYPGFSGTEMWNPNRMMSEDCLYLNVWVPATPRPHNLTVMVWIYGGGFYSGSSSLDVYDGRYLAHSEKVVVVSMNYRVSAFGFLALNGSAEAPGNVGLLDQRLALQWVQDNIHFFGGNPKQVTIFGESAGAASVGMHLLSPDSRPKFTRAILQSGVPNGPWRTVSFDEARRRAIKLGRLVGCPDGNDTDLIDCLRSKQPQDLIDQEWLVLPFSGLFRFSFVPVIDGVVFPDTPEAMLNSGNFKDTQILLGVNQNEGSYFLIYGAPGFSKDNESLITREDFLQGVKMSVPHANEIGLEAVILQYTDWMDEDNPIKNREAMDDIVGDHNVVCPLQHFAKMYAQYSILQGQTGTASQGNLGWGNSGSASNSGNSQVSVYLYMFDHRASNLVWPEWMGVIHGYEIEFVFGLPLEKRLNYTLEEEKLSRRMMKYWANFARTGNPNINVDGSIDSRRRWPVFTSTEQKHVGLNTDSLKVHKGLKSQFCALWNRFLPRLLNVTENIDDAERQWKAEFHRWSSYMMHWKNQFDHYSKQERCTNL

Molecule	inhibition at 100 µM (BuChE [1]; at 100 µM) [%]	inhibition at 100 µM (AChE [2]) [%]	inhibition at 100 µM (BuChE [1]) [%]	inhibition at 100 µM (AChE [2]; at 100 µM) [%]	IC50 (BuChE [1]) [µM]	Ki (BuChE [3])	BuChE Inhibition type (BuChE [3])	IC50 (AChE [2]) [µM]	BuChE inhibitory activity relative to Compound 34 (BuChE [1]; from IC50 values (7.5 vs 17.1 µM))	Ki (AChE [4]) [µM]	AChE Inhibition type (AChE [4])
O=c1cc(-c2ccc(O)cc2)oc2cc(O)cc(O)c12 [Compound 1, apigenin]	> 50	> 50	–	–	–	–	–	–	–	–	–
O=c1c(O[C@@H]2O[C@H](CO)[C@@H](O)[C@H](O)[C@H]2O)c(-c2ccc(O)cc2)oc2cc(O)cc(O)c12 [Compound 5, astragalin]	–	> 50	> 50	–	–	–	–	–	–	–	–
Oc1cc(O)c2c(c1)O[C@H](c1ccc(O)c(O)c1)[C@H](O)C2 [Compound 19, (-)-epicatechin]	> 50	–	–	> 50	–	–	–	–	–	–	–
COc1cc(/C=C/C(=O)OC[C@H]2O[C@@](COC(=O)/C=C/c3ccc(O)c(OC)c3)(O[C@H]3O[C@H](COC(=O)/C=C/c4ccc(O)c(OC)c4)[C@@H](O)[C@H](O)[C@H]3O)[C@@H](OC(=O)/C=C/c3ccc(O)cc3)[C@@H]2O)ccc1O [Compound 30, lapathoside B]	–	–	–	–	10.9 ± 4.9	~12.1 µM	Competitive	> 100	–	–	–
COc1cc(/C=C/C(=O)OC[C@H]2O[C@H](O[C@]3(COC(=O)/C=C/c4ccc(O)cc4)O[C@H](COC(=O)/C=C/c4ccc(O)cc4)[C@@H](O)[C@@H]3OC(=O)/C=C/c3ccc(O)cc3)[C@H](O)[C@@H](O)[C@@H]2O)ccc1O [Compound 31, vanicoside B]	–	–	–	> 60	7.5 ± 4.1	~3.5 µM	Competitive	32.3 ± 4.7	over 2 fold	~30	non-competitive inhibitors
COc1cc(/C=C/C(=O)OC[C@H]2O[C@H](O[C@]3(COC(=O)/C=C/c4ccc(O)c(OC)c4)O[C@H](COC(=O)/C=C/c4ccc(O)cc4)[C@@H](O)[C@@H]3OC(=O)/C=C/c3ccc(O)cc3)[C@H](O)[C@@H](O)[C@@H]2O)ccc1O [Compound 32, lapathoside A]	–	–	–	> 60	2.7 ± 1.7	~1.8 µM	Competitive	30.6 ± 4.7	–	~34.4	non-competitive inhibitors
smilaside G [Compound 34]	–	–	–	–	17.1 ± 3.4	17.5 µM and ~17.5 µM	Competitive	> 100	–	–	–
smilaside J [Compound 33]	–	–	–	–	10.1 ± 4.6	~8.5 µM	Competitive	56 ± 2.4	–	–	–
